These results are taken from patent US7288622B1, “Composition for treatment of burns and wounds” (Issar Pharmaceuticals Pvt Ltd, priority 2006, dated 2007).

Series [1] deals with mice. Briefly: Acute toxicity test of the peptide in mice. As to conditions: 12.53 mg/kg intraperitoneal, single dose, inspected at 3rd, 6th, 12th and 24th hour, animals active on 14th day. The class given is in vivo. Here is the method: (§1) The safety of the peptide was tested with mice and rats at age of 4 to 6 weeks. The tests were conducted with five female mice and rats and five male mice and rats. The dose of the peptide injected intraperitoneal was 8.95 mg/kg for rats and 12.53 mg/kg for mice. The acute toxicity test was conducted at 3rd, 6th, 12th and 24th hour after exposure to the peptide. […] The animals were active still on 14th day.

In series [2] the test system is rats. Briefly: Acute toxicity test of the peptide in rats. The class given is in vivo. As to conditions: 8.95 mg/kg intraperitoneal, single dose, inspected at 3rd, 6th, 12th and 24th hour, animals active on 14th day. Here is the method:
as §1

Series [3] in a line: physchem. The class given is physicochemical. From the text:
The molecular weight of the peptide is 2776 and 3388 with counter ions. The peptide is water-soluble and forms an alpha helical secondary protein structure.

The structures appear in SMILES notation. ≈ marks a conversion by molar mass, not a printed value. Residues, ends and D or L forms follow the SMILES beside them.

One may read the solubility as the concentration that dissolves in the medium under given conditions. A low value points to a poorly soluble substance.

For `C[C@H](NC(=O)[C@H](Cc1ccccc1)NC(=O)[C@H](C)NC(=O)[C@H](Cc1ccccc1)NC(=O)[C@H](CCCCN)NC(=O)[C@H](C)NC(=O)[C@H](Cc1ccccc1)NC(=O)[C@H](CCCCN)NC(=O)[C@H](CCCCN)NC(=O)[C@H](C)NC(=O)[C@H](Cc1ccccc1)NC(=O)[C@H](CCCCN)NC(=O)[C@H](CCCCN)NC(=O)[C@H](Cc1ccccc1)NC(=O)[C@H](CCCCN)NC(=O)[C@H](CCCCN)NC(=O)[C@H](C)NC(=O)[C@H](Cc1ccccc1)NC(=O)[C@H](CCCCN)NC(=O)[C@H](CCCCN)NC(=O)[C@H](C)NC(=O)[C@@H](N)Cc1ccccc1)C(=O)N[C@@H](Cc1ccccc1)C(=O)O` [peptide] (H-FAKKFAKKFKKFAKKFAKFAFAF-OH; N-terminus and C-terminus assumed), the Acute lethality entry in series [1] and in series [2] was “No lethality was found” throughout. Moreover, the “Solubility in 10% DMSO in saline” value in series [3] turned out to be 32.25 mM (≈ 89.5 mg/mL). In series [3] (saline or isotonic), this compound yielded a solubility of 31.6 mM (≈ 87.6 mg/mL).
